Here are results for 17 molecules from patent US20230132386A9, “GRANZYME B DIRECTED IMAGING AND THERAPY” (CytoSite Biopharma Inc., priority 2019, published 2023).

Data set [1] has as its target T1, Granzyme B (human lymphocytes) (Homo sapiens, UniProt P10144).
T1 construct: Supplied Granzyme B (human lymphocytes) enzyme is reconstituted to 1 mg/ml (about 31.25 μM); purchased Enzo Lifesciences ALX-200-602-0010; host or cells: human lymphocytes
In words: human Granzyme B biochemical assay. Conditions: Granzyme B (human lymphocytes) 5 nM, substrate Ac-IETD-AFC 200 μM, 30 mins incubation, 22° C. The text has this:
The compounds of Formula I described above can be tested using the human Granzyme B biochemical assay provided below.
• 1. Granzyme B (human lymphocytes) Enzyme: Enzo Lifesciences, Cat #ALX-200-602-0010 • 2. Substrate (Ac-IETD-AFC): Enzo Lifesciences, Cat #ALX-260-110-M010 • 3. Standard inhibitor (Compound 20-Isomer3): Synthesized internally in TCG • 4. Dimethyl sulfoxide (DMSO): Sigma-Aldrich, Cat #41639 • 5. HEPES: Gibco, Cat #15630-080 • 6. Calcium chloride: Sigma-Aldrich, Cat #C-5080 • 7. Distilled water: Gibco, Cat #15230-162 • 8. Bovine serum albumin (BSA): Sigma-Aldrich, Cat #A3059 • 9. Black, clear bottom PDL plate (384 wells): Greiner bio-one, Cat #781946 • 10. Polypropylene plate (384 wells): Corning, Cat #3657
• 1. DMSO is added to the respective compound vial to make 10 mM Compound stock solution, which is stored at −20° C. • 2. 10 mM Compound stock solution is thawed and 1 mM DMSO stock solution is prepared by adding 45 μl of DMSO to 5 μl of 10 mM compound stock solution. • 3. 1 mM DMSO stock solution is serially diluted (3.16 fold) by adding 10 μl of 1 mM DMSO stock to 21.6 μl of DMSO and mixed well. 10 μl of the resulting solution is then added to 21.6 μl of DMSO and mixed well. This process is continued to created 11 dilution points for the assay standard inhibitor and 8 dilution points for test compounds in 384 well polypropylene plate. • 4. 2 μl of each dilution are dispensed in assay ready plate. 5. Each well is then diluted 25 fold by adding 48 μl of assay buffer to 2 μl of compound in assay ready plate to make Compound working stock.
• 1. Supplied Granzyme B (human lymphocytes) enzyme is reconstituted to 1 mg/ml (about 31.25 μM) and 1 μl aliquots are kept in −80° C. • 2. 1 μl aliquot is diluted to 625 nM by adding 49 μl of assay buffer containing 0.1% BSA and gently mixed. • 3. 10 nM enzyme working stock is prepared by adding assay buffer containing 0.1% BSA.
• 1. Supplied substrate (Ac-IETD-AFC) is reconstituted by adding DMSO to make 10 mM stock, aliquoted and stored in −80° C. • 2. 4 mM substrate mid stock is prepared by adding DMSO. • 3. Substrate working stock i.e. 800 μM is prepared by adding assay buffer.
• 1. 10 μl of serially diluted Compound working stock (start dose 40 μM) is added from assay ready plate to assay plate according to the plate map. • 2. Positive control (40 μM of standard inhibitor) and negative control (4% DMSO buffer) are added to the respective wells. • 3. 20 μl of Enzyme working stock is added to assay plate and gently mixed. • 4. The plate is incubated at 22° C. for 30 mins and spun at 130 g for 1 minute. • 5. After incubation, 10 μl of Substrate working stock is added to respective wells and mixed (Assay plate is maintained in dark after substrate addition). • 6. The plate is incubated at 22° C. for 60 mins and spun at 130 g for 1 minute. • 7. Fluorescence read (RFU) (Ex: 400 nm/Em: 505 nm) is taken after 60 mins in EnVision Multimode plate reader.
• 1. The RFU read is analyzed to calculate percent inhibition by normalizing with positive and negative controls taken as 100% and 0% effect respectively in Microsoft excel. • 2. Graph is generated by putting the analyzed data in GraphPad prism 5.0 software to get IC50 value for each compound.

Data set [2] can be described thus: metabolic stability assay using liver microsomes. Format: in vitro ADME. Conditions: human liver microsomes 0.4 mg/ml, 1 μM, NRS, 37° C. As for the experimental part: In addition, compounds of Formula I described above are also tested in the metabolic stability assay using liver microsomes, as provided below.
Buffer pH7.4: Prepare 1 (M) KH2PO4 and 1 (M) K2HPO4. Titrate 1(M) K2HPO4 with 1 (M) KH2PO4 to obtain pH 7.40. Dilute this buffer 10 fold in Water (30 ml buffer+270 ml of water) to obtain 100 mM phosphate buffer. Adjust pH to 7.40±0.02 using 5(N) HCl or 5(N) NaOH.
NADPH Regeneration System (NRS): Prepare a solution containing 13 mM NADP, 33 mM Glucose-6-phosphate, 33 mM MgCl2 and 4 U/ml Glucose-6-phosphate dehydrogenase in buffer.
Liver Microsome (LM) suspension: Thaw LM vial on ice, then mix 1.0 ml LM (20 mg/ml) with 19 ml buffer [final LM Conc: 1 mg/ml]
LM+NRS suspension: Mix 5.0 ml NRS with 20 ml LM suspension [final LM Conc: 0.8 mg/ml]
System suitability standard: a synthesized compound having Mol wt 686.2 used as System suitability standard. Dissolve this compound in ice-cold acetonitrile to obtain concentration of 0.1 μg/ml and store at 4° C.
Sub stock (100 μM): 4 μl of 10 mM Compound Stock+398 μl Acetonitrile Working plate (2 μM): 10 μl of 100 μM Sub stock+490 μl buffer
Incubate all plastic materials including tips at 37° C. overnight.
Incubate LM suspension and NRS at 37° C. for 15 min before use.
Add 40 μl buffer to the wells of blank plate.
Add 40 μl compound (from working plate) to 0, 5, 10, 20, 30 and 60 min plates.
Initiate reaction by adding 40 μl of LM+NRS suspension in each plate.
Terminate reaction by adding 240 μl ice-cold acetonitrile containing system suitability standard at designated time points. For T=0 add 240 μl ice-cold acetonitrile containing system suitability standard before LM+NRS addition.
Centrifuge (3500 rpm, 20 min and 15° C.) the plates.
Mix 110 μl supernatant with 110 μl water and quantitate amount of Compound in the solution using LC-MS/MS.
% Remaining at t=x min=100×([LC-MS/MS peak area of analyte]t=x min)/([LC-MS/MS peak area of analyte]t=0min)
Human LM: Corning, Cat #25117
Certain compounds of this disclosure were tested in the microsomal stability assay provided above.
For orientation: Liver microsomes are vesicles of endoplasmic reticulum, rich in cytochrome P450 enzymes.

Some results are limits rather than exact numbers.

T1 sequence (P10144 21-247): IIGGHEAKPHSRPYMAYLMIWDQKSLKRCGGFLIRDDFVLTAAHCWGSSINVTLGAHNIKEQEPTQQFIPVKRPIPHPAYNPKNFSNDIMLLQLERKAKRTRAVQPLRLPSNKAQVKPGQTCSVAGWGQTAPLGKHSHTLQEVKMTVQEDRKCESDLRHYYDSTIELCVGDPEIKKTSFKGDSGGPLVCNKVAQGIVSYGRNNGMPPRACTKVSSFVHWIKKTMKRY

Broadly, the IC50 is the midpoint of a concentration-inhibition curve. Lower therefore signals higher potency. Regarding `CC[C@H](C)[C@@H](C(=O)N[C@H]1CCc2cccc3c2N(C1=O)[C@H](C(=O)NCc1c[nH]nn1)C3)N(CCC(=O)O)C(=O)COCCF` (single isomer, unassigned) [Compound C230], the 50% inhibitory concentration (IC50) in data set [1] fell in the range of 301 to 1000 nM. For the same molecule, the “Human Liver Microsomes % remaining @30 min” value in data set [2] is 98.2%.
In the same order, the values of “N-Methyl-N-((1S,2S)-2-methyl-1- {(1S,8S)-9-oxo-1-[(1H-[1,2,3]triazol- 4-y lmethyl)-carbamoyl]-1,2,8,9- tetrahydro-7H-6-oxa-9a-aza- benzo[cd]azu1en-8-ylcarbamoyl}- butyl)-malonamic acid [Compound C214]” are 301 to 1000 nM and 100.0%.
The molecule `CC[C@H](C)[C@@H](C(=O)N[C@H]1CCc2cccc3c2N(C1=O)[C@H](C(=O)NCc1c[nH]nn1)C3)N(C)C(=O)CC(=O)N(C)C` (single isomer, unassigned) [Compound C193] gave an IC50 in data set [1] of 301 to 1000 nM.
`CC[C@H](C)[C@@H](C(=O)N[C@H]1CCc2cccc3c2N(C1=O)[C@H](C(=O)NCc1c[nH]nn1)C3)N(CCOCCF)C(C)=O` (single isomer, unassigned) [Compound C203] showed an IC50 in data set [1] of 301 to 1000 nM.
In data set [1], `CC[C@H](C)[C@@H](C(=O)N[C@H]1CCc2cccc3c2N(C1=O)[C@H](C(=O)NCc1c[nH]nn1)C3)N(C)C(=O)CC(=O)NC` (single isomer, unassigned) [Compound C192] registered an IC50 of 301 to 1000 nM. Further, the “Human Liver Microsomes % remaining @30 min” value in data set [2] is on record as 72.8%.
For `CC[C@H](C)[C@@H](C(=O)N[C@H]1CCc2cccc3c2N(C1=O)[C@H](C(=O)NCc1c[nH]nn1)C3)N(CCOCCF)C(=O)Cc1nc2ccccc2o1` (single isomer, unassigned) [Compound C178], in data set [1], the IC50 was in the range of 301 to 1000 nM. The “Human Liver Microsomes % remaining @30 min” value in data set [2] is recorded as 0.8%.
For the molecule `CC[C@H](C)[C@@H](C(=O)N[C@H]1CCc2cccc3c2N(C1=O)[C@H](C(=O)NCc1c[nH]nn1)C3)N(C)C(=O)COCCF` (single isomer, unassigned) [Compound C155], the IC50 in data set [1] is 301 to 1000 nM. Also, the “Human Liver Microsomes % remaining @30 min” value in data set [2] amounted to 66.3%.
With `CC[C@H](C)[C@@H](C(=O)N[C@H]1CCc2cccc3c2N(C1=O)[C@H](C(=O)NCc1c[nH]nn1)C3)N(C(=O)COCCF)C(C)C` (single isomer, unassigned) [Compound C177], in data set [1], the IC50 is 1000 to 5000 nM.
As for `CC[C@H](C)[C@@H](C(=O)N[C@H]1CCc2cccc3c2N(C1=O)[C@H](C(=O)NCc1c[nH]nn1)C3)N(C)C(=O)Cc1c[nH]cn1` (single isomer, unassigned) [Compound C197], the 50% inhibitory concentration (IC50) in data set [1] lay within 301 to 1000 nM.
In data set [1], `CC[C@H](C)[C@@H](C(=O)N[C@H]1CCc2cccc3c2N(C1=O)[C@H](C(=O)NCc1c[nH]nn1)C3)N(C)C(=O)CC(N)=O` (single isomer, unassigned) [Compound C191] yielded an IC50 of 301 to 1000 nM. The “Human Liver Microsomes % remaining @30 min” value in data set [2] was 83.6%.
`CC[C@H](C)[C@@H](C(=O)N[C@H]1CCc2cccc3c2N(C1=O)[C@H](C(=O)NCc1c[nH]nn1)C3)N(C)C(=O)Cn1ccnc1` (single isomer, unassigned) [Compound C198] showed an IC50 in data set [1] of 301 to 1000 nM. In addition, in data set [2], the “Human Liver Microsomes % remaining @30 min” value is 55.4%.
In data set [1], `CC[C@H](C)[C@@H](C(=O)N[C@H]1CCc2cccc3c2N(C1=O)[C@H](C(=O)NCc1c[nH]nn1)C3)N(CCOCCCF)C(=O)Cc1nc2ccccc2o1` (single isomer, unassigned) [Compound C179] came in with a concentration for half-maximal inhibition (IC50) of 301 to 1000 nM.
As for `CC[C@H](C)[C@@H](C(=O)N[C@H]1CCc2cccc3c2N(C1=O)[C@H](C(=O)NCc1c[nH]nn1)C3)N(C)C(=O)Cc1csc2ccccc12` (single isomer, unassigned) [Compound C152], in data set [1], the IC50 lay within 301 to 1000 nM.
The molecule `CC[C@H](C)[C@@H](C(=O)N[C@H]1CCc2cccc3c2N(C1=O)[C@H](C(=O)NCc1c[nH]nn1)C3)N(C)C(=O)CC(=O)OC` (single isomer, unassigned) [Compound C194] displayed an IC50 in data set [1] of 301 to 1000 nM.
As for `CC[C@H](C)[C@@H](C(=O)N[C@H]1CCc2cccc3c2N(C1=O)[C@H](C(=O)NCc1c[nH]nn1)C3)N(C)C(=O)CC(=O)O` (single isomer, unassigned) [Compound C190], in data set [1], the IC50 lay in the range of 301 to 1000 nM.
Take `CC[C@H](C)[C@@H](C(=O)N[C@H]1CCc2cccc3c2N(C1=O)[C@H](C(=O)NCc1c[nH]nn1)C3)N(CC)C(=O)COCCF` (single isomer, unassigned) [Compound C176]: the IC50 in data set [1] lay in the range of 301 to 1000 nM.
Regarding `CC[C@H](C)[C@@H](C(=O)N[C@H]1CCc2cccc3c2N(C1=O)[C@H](C(=O)NCc1c[nH]nn1)C3)N(CCc1csc2ccccc12)C(C)=O` (single isomer, unassigned) [Compound C184], the IC50 in data set [1] was more than 5000 nM.
